Experimental data as given in patent US20250215039A1, “NUCLEOSIDES FOR TREATING CANCER” (PRIMEFOUR THERAPEUTICS, INC., priority 2022, published 2025).
Read-outs that look alike come from different tables or passages of the source.

System: cancer cell lines
Test: Cancer cell proliferation activity (CellTiterGlo, 72 h)
Type: cell-based
Conditions: 72 h, 72 h, read-out: IC50
Procedure, shortened: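 Readout is CellTiterGlo luminescence after 72 h compound exposure (0.1% DMSO final), started one day post-seeding, at 37 °C.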

## C[C@]1(CO)O[C@@H](n2cnc3c(N)nc(F)nc32)C[C@@H]1O [Cpd. No. 126, (2R,3S,5R)-5-(6-amino-2-fluoro-9H-purin-9-yl)-2-(hydroxymethyl)-2-methyltetrahydrofuran-3-ol]
5637 cell line (bladder)
  IC50: 1000 nM
CLS439 cell line (bladder)
  IC50: > 50000 nM
HS729 cell line (muscle)
  IC50: 1360 nM
HSS78T cell line
  IC50: 820 nM
JAR cell line (placenta)
  IC50: 460 nM
SKMELS cell line
  IC50: > 50000 nM
Homo sapiens, 22Rv1, 72 h, 22RV1 cell line (prostate)
  IC50: 1570 nM
Homo sapiens, 786-0, 72 h, 786O cell line (kidney)
  IC50: 520 nM
Homo sapiens, A204, 72 h, A204 cell line (muscle)
  IC50: 290 nM
Homo sapiens, A549, 72 h, A549 cell line
  IC50: > 50000 nM
Homo sapiens, A673, 72 h, A673 cell line (bone)
  IC50: 2310 nM
Homo sapiens, A2780, 72 h, A2780 cell line (ovary)
  IC50: 1260 nM
Homo sapiens, A-375, 72 h, A375 cell line (skin)
  IC50: 260 nM
Homo sapiens, A-431, 72 h, A431 cell line (skin)
  IC50: 340 nM
Homo sapiens, ACHN, ACHN cell line (kidney)
  IC50: 3300 nM
Homo sapiens, ASPC1, 72 h, ASPC1 cell line (pancreas)
  IC50: 420 nM
Homo sapiens, BT-20, 72 h, BT20 cell line (breast)
  IC50: 520 nM
Homo sapiens, BXPC-3, 72 h, BXPC3 cell line (pancreas)
  IC50: > 50000 nM
Homo sapiens, C-33-A, C33A cell line (cervical)
  IC50: 1790 nM
Homo sapiens, CAKI-1, 72 h, CAKI1 cell line (kidney)
  IC50: 30 nM
Homo sapiens, COLO 205, 72 h, COLO205 cell line (colon)
  IC50: 1300 nM
Homo sapiens, COLO-678, 72 h, COLO678 cell line (colon)
  IC50: 5810 nM
Homo sapiens, Ca-Ski, CASKI cell line (cervical)
  IC50: 260 nM
Homo sapiens, Caco-2, 72 h, CACO2 cell line (colon)
  IC50: 720 nM
Homo sapiens, Calu-6, 72 h, CALU6 cell line (lung)
  IC50: 610 nM
Homo sapiens, DLD-1, 72 h, DLD1 cell line (colon)
  IC50: 1980 nM
Homo sapiens, DU-145, 72 h, DU145 cell line (prostate)
  IC50: 120 nM
Homo sapiens, EFO-21, 72 h, EFO21 cell line (ovary)
  IC50: 570 nM
Homo sapiens, EJ-28, 72 h, EJ28 cell line (bladder)
  IC50: 560 nM
Homo sapiens, Granta-519, 72 h, GRANTA-519 cell line (hematological)
  IC50: 1030 nM
Homo sapiens, HCT-15, 72 h, HCT15 cell line (colon)
  IC50: 1810 nM
Homo sapiens, HCT-116, 72 h, HCT116 cell line (colon)
  IC50: 930 nM
Homo sapiens, HEK293, 72 h, HEK293 cell line (kidney)
  IC50: 740 nM
Homo sapiens, HL-60, 72 h, HL-60 cell line (hematological)
  IC50: 520 nM
Homo sapiens, HT-29, 72 h, HT29 cell line (colon)
  IC50: 420 nM
Homo sapiens, HT-1080, 72 h, HT1080 cell line (connective tissue)
  IC50: > 50000 nM
Homo sapiens, HeLa, HELA cell line (cervical)
  IC50: 550 nM
Homo sapiens, HepG2, 72 h, HEPG2 cell line (liver)
  IC50: 790 nM
Homo sapiens, IGROV-1, 72 h, IGROV1 cell line (ovary)
  IC50: 430 nM
Homo sapiens, IMR-90, 72 h, IMR.90 cell line
  IC50: 910 nM
Homo sapiens, J82, 72 h, J82 cell line (bladder)
  IC50: 540 nM
Homo sapiens, JEG-3, 72 h, JEG3 cell line (placenta)
  IC50: 370 nM
Homo sapiens, JIMT-1, 72 h, JIMT1 cell line (breast)
  IC50: 70 nM
Homo sapiens, K562, 72 h, K-562 cell line (hematological)
  IC50: > 50000 nM
Homo sapiens, Kasumi 1, 72 h, KASUMI-1 cell line (hematological)
  IC50: 60 nM
Homo sapiens, L-363, 72 h, L-363 cell line (hematological)
  IC50: 690 nM
Homo sapiens, LoVo, LOVO cell line (colon)
  IC50: 260 nM
Homo sapiens, MCF7, 72 h, MCF7 cell line (breast)
  IC50: > 50000 nM
Homo sapiens, MDA-MB-231, 72 h, MDAMB231 cell line (breast)
  IC50: 2690 nM
Homo sapiens, MDA-MB-435, 72 h, MDAMB435 cell line (skin)
  IC50: 1250 nM
Homo sapiens, MDA-MB-436, 72 h, MDAMB436 cell line (breast)
  IC50: 250 nM
Homo sapiens, MDA-MB-468, 72 h, MDAMB468 cell line (breast)
  IC50: 790 nM
Homo sapiens, MG-63, 72 h, MG63 cell line (bone)
  IC50: > 50000 nM
Homo sapiens, MHH-ES-1, 72 h, MHHES1 cell line (bone)
  IC50: 860 nM
Homo sapiens, MIA PaCa-2, 72 h, MIAPACA2 cell line (pancreas)
  IC50: > 50000 nM
Homo sapiens, MINO, MINO cell line (hematological)
  IC50: 120 nM
Homo sapiens, MV4-11, 72 h, MV4-11 cell line (hematological)
  IC50: 70 nM
Homo sapiens, NCI-H23, 72 h, NCI-H23 cell line (lung)
  IC50: 480 nM
Homo sapiens, NCI-H82, 72 h, NCIH82 cell line (lung)
  IC50: 610 nM
Homo sapiens, NCI-H292, 72 h, NCIH292 cell line (lung)
  IC50: 5310 nM
Homo sapiens, NCI-H460, 72 h, NCIH460 cell line (lung)
  IC50: 620 nM
Homo sapiens, OVCAR-3, 72 h, OVCAR3 cell line (ovary)
  IC50: 140 nM
Homo sapiens, OVCAR-4, 72 h, OVCAR4 cell line (ovary)
  IC50: 740 nM
Homo sapiens, PANC-1, 72 h, PANC1 cell line (pancreas)
  IC50: > 50000 nM
Homo sapiens, PC-3, 72 h, PC3 cell line (prostate)
  IC50: 1090 nM
Homo sapiens, PLC-PRF-5, 72 h, PLCPRF5 cell line (liver)
  IC50: 2160 nM
Homo sapiens, Panc1005, 72 h, PANC1005 cell line (pancreas)
  IC50: 240 nM
Homo sapiens, RD, RD cell line (muscle)
  IC50: 2320 nM
Homo sapiens, Ramos, RAMOS cell line (hematological)
  IC50: 560 nM
Homo sapiens, SAOS-2, 72 h, SAOS2 cell line (bone)
  IC50: 270 nM
Homo sapiens, SF-268, 72 h, SF268 cell line (brain)
  IC50: > 50000 nM
Homo sapiens, SF-295, 72 h, SF295 cell line (brain)
  IC50: 1940 nM
Homo sapiens, SK-BR-3, 72 h, SKBR3 cell line (breast)
  IC50: 100 nM
Homo sapiens, SK-HEP1, 72 h, SKHEP1 cell line (liver)
  IC50: 4780 nM
Homo sapiens, SK-LMS-1, 72 h, SKLMS1 cell line (uterus)
  IC50: 600 nM
Homo sapiens, SK-MEL-28, 72 h, SKMEL28 cell line (skin)
  IC50: 1180 nM
Homo sapiens, SK-N-AS, SKNAS cell line (brain)
  IC50: 780 nM
Homo sapiens, SK-N-SH, SKNSH cell line (brain)
  IC50: 640 nM
Homo sapiens, SK-OV-3, 72 h, SKOV3 cell line (ovary)
  IC50: 1030 nM
Homo sapiens, SNB-75, 72 h, SNB75 cell line (brain)
  IC50: 2600 nM
Homo sapiens, SU-DHL10, 72 h, SU-DHL-10 cell line (hematological)
  IC50: 460 nM
Homo sapiens, SU-DHL-6, 72 h, SU-DHL-6 cell line (hematological)
  IC50: 360 nM
Homo sapiens, SW-620, 72 h, SW620 cell line (colon)
  IC50: 570 nM
Homo sapiens, T-24, 72 h, T24 cell line (bladder)
  IC50: 920 nM
Homo sapiens, TE-671, 72 h, TE671 cell line (muscle)
  IC50: 3140 nM
Homo sapiens, THP-1, 72 h, THP-1 cell line (hematological)
  IC50: 110 nM
Homo sapiens, U2OS, U2OS cell line (bone)
  IC50: 1120 nM
Homo sapiens, U-87 MG, U87MG cell line (brain)
  IC50: 5620 nM
Homo sapiens, UMUC3, 72 h, UMUC3 cell line (bladder)
  IC50: > 50000 nM
Homo sapiens, UO-31, 72 h, UO31 cell line (kidney)
  IC50: 300 nM
Homo sapiens, WSU-NHL, WSU-NHL cell line (hematological)
  IC50: 560 nM
MT-3, 72 h, MT3 cell line (breast)
  IC50: 500 nM
NCI-H358M, NCIH358M cell line (lung)
  IC50: 300 nM
PBMC, PBMC (hematological)
  IC50: 1990 nM
RD-ES, RDES cell line (bone)
  IC50: 370 nM
